Source: ChEMBL document CHEMBL4000228, “Synthesis of bioactive and fluorescent pyridine-triazole-coumarin peptidomimetics through sequential click-multicomponent reactions” (Bioorg Med Chem Lett, 2017)
Active and inactive are the calls of the source. The rule behind the calls is not given here.

What was measured:
[1] = system: MCF7; assay: Induction of morphological changes in human MCF7 cells at 40 uM after 48 hrs by DAPI staining based fluorescence microscopic method; type: functional, cell-based
[2] = system: MCF7; assay: Induction of morphological changes in human MCF7 cells at 40 uM after 48 hrs by DAPI staining based inverted light microscopic method; type: functional, cell-based

COc1ccc(C(CC(=O)c2cc3ccccc3oc2=O)NC(=O)CCn2cc(COc3ccc(-c4c(C#N)c(N)nc(Sc5ccccc5)c4C#N)cc3OC)nn2)cc1 (configuration not stated)
Activity [1]: Active
Activity [2]: Active
